Patent US11109592B2, “Selective weed control methods” (Corteva Agriscience LLC, priority 2013, dated 2021)
Read-outs that look alike come from different tables or passages of the source.

Legend:
[1] = system: spring kale (Brassica oleracea); assay: Field trial, crop injury to spring kale, post-emergence; format: in vivo; settings: B12-B16 crop stage
Source text: Data from the trials on spring kale (Brassica oleracea) are summarized Table 4.

[2] = system: Winfred forage brassica (Brassica rapa × oleracea); assay: Field trial, crop injury to Winfred forage brassica, post-emergence; format: in vivo; settings: B14-B16 crop stage, Australia
[3] = system: common lambsquarters (Chenopodium album L.); assay: Field trial in sugar beet, visual control of common lambsquarters; format: in vivo; settings: 36 days following last application
Source text: (§1) As used herein, selective post-emergent control of undesirable vegetation means preventing, reducing, killing, or otherwise adversely modifying the development of the undesirable vegetation in the presence of crop plants with limited adverse effect on the crop plants. For example, a broadleaf weed control of 80% (rated visually) with crop injury of less than or equal to 20%, rated visually, would constitute selective control. In some embodiments the adverse effect on crop plants is limited to less than 10% visually rated crop injury. […] Visual weed control is a composite rating accounting for reductions in pest plant biomass and/or stand reduction.
(§2) Treatments 4 and 5 were split applications at the two indicated growth stages.

[4] = system: wild buckwheat (Polygonum convolvulus L.); assay: Field trial in sugar beet, visual control of wild buckwheat; format: in vivo; settings: 36 days following last application
Source text: as §1, §2

[5] = system: Juncea canola (Brassica juncea); settings: for Percent (%) Crop Injury (Mean Value): B12-B14 crop stage; for injury to Juncea canola, on average did not exceed: five field trials
[6] = system: spring turnip (Brassica rapa); settings: for Percent (%) Crop Injury (Mean Value): B12-B16 crop stage; for injury to turnip, on average did not exceed: three field trials
[7] = system: spring rutabaga (Brassica napus); settings: for Percent (%) Crop Injury (Mean Value): B12-B14 crop stage; for injury to rutabaga, on average did not exceed: three field trials
[8] = system: spring sorghum (Sorghum vulgare); assay: Field trial, crop injury to spring sorghum, post-emergence; settings: B17-B22 crop stage
[9] = system: spring sunflower (Helianthus annuus); assay: Field trial, crop injury to spring sunflower, post-emergence; settings: B12-B14 crop stage, Australia
[10] = system: yellow mustard (Sinapis alba); assay: Field trial, crop injury to and yield of yellow mustard, post-emergence; settings: B14-B15 crop stage
[11] = system: certain members of the Amaranthaceae, Asteraceae, Lamiaceae, Rubiaceae, Papaveraceae and Brassicaceae families; assay: Herbicidal activity (LD90) on plant families; format: in vivo; settings: grams acid equivalent per hectare
[12] = system: broadleaf weeds including cleavers (Galium aparine), chickweed (Stellaria media), pigweed (Amaranthus spp.), lamb's-quarters (Chenopodium album) and others; assay: Efficacy on commercially relevant broadleaf weeds; format: in vivo; settings: application rate of 2.5 to 10 g ae/ha
[13] = system: sunflowers, sorghum, yellow mustard, Brassicaceae-family crops, and sugar beets; assay: Overall crop safety, post-emergence application; format: in vivo; settings: post-emergence application rates of ≤10 g ae/ha
[14] = rate 2.5 (g ae/ha), 1 week after application
[15] = rate 2.5, 3-5 weeks after application
[16] = rate 5, 1 week after application
[17] = rate 5, 3-5 weeks after application
[18] = rate 10, 1 week after application
[19] = rate 10, 3-5 weeks after application
[20] = rate 20, 1 week after application
[21] = rate 2.5, 6-10 weeks after application
[22] = rate 5, 6-10 weeks after application
[23] = rate 10, 6-10 weeks after application
[24] = rate 20, 3-5 weeks after application
[25] = treatment 1: 1.0 g ae/ha at BEAVA stage B12-B16
[26] = treatment 2: 2.0 g ae/ha at BEAVA stage B12-B16
[27] = treatment 3: 3.0 g ae/ha at BEAVA stage B12-B16
[28] = treatment 4: split application 0.5 g ae/ha at B10-B12 and 0.5 g ae/ha at B12-B16
[29] = treatment 5: split application 1.0 g ae/ha at B10-B12 and 1.0 g ae/ha at B12-B16
[30] = rate 20, 6-10 weeks after application
[31] = rate 2.5 (g ae/ha), 3-5 weeks after application

COC(=O)c1nc(-c2ccc(Cl)c(OC)c2F)cc(N)c1Cl [4-Amino-3-chloro-6-(4-chloro-2-fluoro-3-methoxyphenyl)pyridine-2-carboxylic acid methyl ester]
Percent (%) Crop Injury (Mean Value) [1, 14]: 2.5%
Percent (%) Crop Injury (Mean Value) [1, 15]: 0%
Percent (%) Crop Injury (Mean Value) [1, 16]: 1.3%
Percent (%) Crop Injury (Mean Value) [1, 17]: 1.3%
Percent (%) Crop Injury (Mean Value) [1, 18]: 2.5%
Percent (%) Crop Injury (Mean Value) [1, 19]: 3.8%
Percent (%) Crop Injury (Mean Value) [1, 20]: 15%
Percent (%) Crop Injury (Mean Value) [2, 21]: 7.5%
Percent (%) Crop Injury (Mean Value) [2, 17]: 9.2%
Percent (%) Crop Injury (Mean Value) [2, 22]: 7.5%
Percent (%) Crop Injury (Mean Value) [2, 19]: 8.8%
Percent (%) Crop Injury (Mean Value) [2, 23]: 0%
Percent (%) Crop Injury (Mean Value) [2, 24]: 11.3%
Percent (%) Visual Control CHEAL [3, 25]: 35%
Percent (%) Visual Control CHEAL [3, 26]: 98%
Percent (%) Visual Control CHEAL [3, 27]: 95.8%
Percent (%) Visual Control CHEAL [3, 28]: 30%
Percent (%) Visual Control CHEAL [3, 29]: 96.8%
Percent (%) Visual Control POLCO [4, 25]: 5%
Percent (%) Visual Control POLCO [4, 26]: 22.5%
Percent (%) Visual Control POLCO [4, 27]: 60%
Percent (%) Visual Control POLCO [4, 28]: 20%
Percent (%) Visual Control POLCO [4, 29]: 35%
Percent (%) Crop Injury (Mean Value) [5, 14]: 2.5%
Percent (%) Crop Injury (Mean Value) [5, 15]: 7.5%
Percent (%) Crop Injury (Mean Value) [5, 21]: 5%
Percent (%) Crop Injury (Mean Value) [5, 16]: 3.8%
Percent (%) Crop Injury (Mean Value) [5, 17]: 10.5%
Percent (%) Crop Injury (Mean Value) [5, 22]: 11.3%
Percent (%) Crop Injury (Mean Value) [5, 18]: 3.8%
Percent (%) Crop Injury (Mean Value) [5, 19]: 5.5%
Percent (%) Crop Injury (Mean Value) [5, 23]: 3.8%
Percent (%) Crop Injury (Mean Value) [5, 20]: 30%
Percent (%) Crop Injury (Mean Value) [5, 24]: 13.8%
Percent (%) Crop Injury (Mean Value) [5, 30]: 0%
Percent (%) Crop Injury (Mean Value) [6, 14]: 2.5%
Percent (%) Crop Injury (Mean Value) [6, 15]: 2.5%
Percent (%) Crop Injury (Mean Value) [6, 16]: 5%
Percent (%) Crop Injury (Mean Value) [6, 17]: 1.3%
Percent (%) Crop Injury (Mean Value) [6, 18]: 7.5%
Percent (%) Crop Injury (Mean Value) [6, 19]: 7.5%
Percent (%) Crop Injury (Mean Value) [6, 24]: 7.5%
Percent (%) Crop Injury (Mean Value) [7, 14]: 6.3%
Percent (%) Crop Injury (Mean Value) [7, 15]: 3.8%
Percent (%) Crop Injury (Mean Value) [7, 16]: 10%
Percent (%) Crop Injury (Mean Value) [7, 17]: 3.3%
Percent (%) Crop Injury (Mean Value) [7, 18]: 15%
Percent (%) Crop Injury (Mean Value) [7, 19]: 7.5%
Percent (%) Crop Injury (Mean Value) [7, 20]: 27.5%
Percent (%) Crop Injury (Mean Value) [7, 24]: 15%
Percent (%) Crop Injury (Mean Value) [8, 31]: 8.3%
Percent (%) Crop Injury (Mean Value) [8, 21]: 13.3%
Percent (%) Crop Injury (Mean Value) [8, 17]: 11.7%
Percent (%) Crop Injury (Mean Value) [8, 22]: 18.3%
Percent (%) Crop Injury (Mean Value) [8, 19]: 18.3%
Percent (%) Crop Injury (Mean Value) [8, 23]: 15%
Percent (%) Crop Injury (Mean Value) [8, 24]: 13.3%
Percent (%) Crop Injury (Mean Value) [8, 30]: 15%
Percent (%) Crop Injury (Mean Value) [9, 31]: 6.7%
Percent (%) Crop Injury (Mean Value) [9, 21]: 6.7%
Percent (%) Crop Injury (Mean Value) [9, 17]: 13.3%
Percent (%) Crop Injury (Mean Value) [9, 22]: 11.7%
Percent (%) Crop Injury (Mean Value) [9, 19]: 15%
Percent (%) Crop Injury (Mean Value) [9, 23]: 8.3%
Percent (%) Crop Injury (Mean Value) [9, 24]: 22.3%
Percent (%) Crop Injury (Mean Value) [9, 30]: 6.7%
Percent (%) Crop Injury (Mean Value of Four Observations) [10, 14]: 8.5%
Percent (%) Crop Injury (Mean Value of Four Observations) ([10]; rate 2.5, 2 weeks after application): 4.8%
Percent (%) Crop Injury (Mean Value of Four Observations) [10, 15]: 4.5%
Percent (%) Crop Injury (Mean Value of Four Observations) [10, 16]: 14.3%
Percent (%) Crop Injury (Mean Value of Four Observations) ([10]; rate 5, 2 weeks after application): 10%
Percent (%) Crop Injury (Mean Value of Four Observations) [10, 17]: 7.5%
Percent (%) Crop Injury (Mean Value of Four Observations) [10, 18]: 21.3%
Percent (%) Crop Injury (Mean Value of Four Observations) ([10]; rate 10, 2 weeks after application): 25%
Percent (%) Crop Injury (Mean Value of Four Observations) [10, 19]: 16.3%
Percent (%) Crop Injury (Mean Value of Four Observations) [10, 20]: 23.8%
Percent (%) Crop Injury (Mean Value of Four Observations) ([10]; rate 20, 2 weeks after application): 35%
Percent (%) Crop Injury (Mean Value of Four Observations) [10, 24]: 25%

COc1c(Cl)ccc(-c2cc(N)c(Cl)c(C(=O)O)n2)c1F [Compound I, 4-amino-3-chloro-6-(4-chloro-2-fluoro-3-methoxyphenyl)pyridine-2-carboxylic acid]
LD90 [11]: ≤ 10 g ae/ha
efficacy on commercially relevant broadleaf weeds [12]: highly efficacious
crop injury [13]: little to no crop injury
injury to Juncea canola, on average did not exceed ([5]; 2.5 g ae/ha): ≤ 7.5%
injury to Juncea canola, on average did not exceed ([5]; 5 g ae/ha): ≤ 11.3%
injury to Juncea canola, on average did not exceed ([5]; 10 g ae/ha): ≤ 5.5%
injury to turnip, on average did not exceed ([6]; 2.5 g ae/ha): ≤ 2.5%
injury to turnip, on average did not exceed ([6]; 5 g ae/ha): ≤ 5%
injury to turnip, on average did not exceed ([6]; 10 g ae/ha): ≤ 7.5%
injury to rutabaga, on average did not exceed ([7]; 2.5 g ae/ha): ≤ 6.3%
injury to rutabaga, on average did not exceed ([7]; 5 g ae/ha): ≤ 10%
injury to rutabaga, on average did not exceed ([7]; 10 g ae/ha): ≤ 15%
